Results as given in US20230295118A1 (EnhancedBio Inc., priority 2022, published 2023).

Tests used:
Assay type in all cases: cell-based
CDK6 = biological target: T1, CDK6 (Homo sapiens, UniProt Q00534); assay: CDK6 degradation (DC50, Dmax)
T1 construct: endogenous in cells

[1] = system: mantle cell lymphoma cell (Mino or JeKo-1); assay: Antiproliferative effect, MTS cell viability assay; settings: 72 h, mantle cell lymphoma cell (Mino or JeKo-1), MTS assay, read-out: IC50 (anti-proliferation)
Procedure, shortened: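 Mino cells treated with compounds at 0, 0.0001, 0.001, 0.01, 0.1, 1 μM for 72 h; palbociclib and abemaciclib as positive controls. Viability by MTS, formazan absorbance read at 490 nm.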

CDK4 = biological target: T2, CDK4 (Homo sapiens, UniProt P11802); assay: CDK4 degradation (DC50, Dmax)
T2 construct: endogenous in cells
T2 sequence (P11802 whole entry): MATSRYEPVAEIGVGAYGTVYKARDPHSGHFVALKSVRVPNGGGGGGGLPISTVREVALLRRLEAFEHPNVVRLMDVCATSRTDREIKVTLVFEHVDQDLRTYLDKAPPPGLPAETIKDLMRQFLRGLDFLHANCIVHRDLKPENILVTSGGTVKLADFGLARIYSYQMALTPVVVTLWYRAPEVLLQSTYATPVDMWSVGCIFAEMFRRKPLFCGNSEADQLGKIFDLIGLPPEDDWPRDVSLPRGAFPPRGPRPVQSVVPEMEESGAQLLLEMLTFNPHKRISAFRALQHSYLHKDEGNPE

T1 sequence (Q00534 whole entry): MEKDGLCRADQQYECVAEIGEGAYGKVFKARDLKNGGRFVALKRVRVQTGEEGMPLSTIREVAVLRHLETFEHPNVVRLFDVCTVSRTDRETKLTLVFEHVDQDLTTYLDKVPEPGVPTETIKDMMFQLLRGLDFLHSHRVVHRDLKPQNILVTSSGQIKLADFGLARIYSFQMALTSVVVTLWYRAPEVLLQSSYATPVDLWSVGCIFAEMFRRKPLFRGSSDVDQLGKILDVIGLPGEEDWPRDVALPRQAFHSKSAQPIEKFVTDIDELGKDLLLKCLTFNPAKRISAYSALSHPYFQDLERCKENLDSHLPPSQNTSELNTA

| SMILES | DC50 (CDK6) | Dmax (CDK6) | IC50 [1] | DC50 (CDK4) | Dmax (CDK4) |
| --- | --- | --- | --- | --- | --- |
| CC(=O)c1c(C)c2cnc(Nc3ccc(N4CCN(C5CCN(C(=O)N6CCC(c7ccc8c(c7)C(=O)N(C7CCC(=O)NC7=O)C8=O)CC6)CC5)CC4)cn3)nc2n(C2CCCC2)c1=O (centres unmarked) [Compound 37, 5-(1-(4-(4-(6-((6-acetyl-8-cyclopentyl-5-methyl-7-oxo-7,8-dihydropyrido[2,3-d]pyrimidin-2-yl)amino)pyridin-3-yl)piperazin-1-yl)piperidine-1-carbonyl)piperidin-4-yl)-2-(2,6-dioxopiperidin-3-yl)isoindoline-1,3-dione] | > 200 nM | > 50% | > 200 nM | > 200 nM | > 50% |
| Cc1nc2c(F)cc(-c3nc(Nc4ccc(CC5CCN(C6CCN(c7ccc(NC8CCC(=O)NC8=O)cc7)CC6)CC5)cn4)ncc3F)cc2n1C(C)C (centres unmarked) [Compound 172, 3-((4-(4-((6-((5-fluoro-4-(4-fluoro-1-isopropyl-2-methyl-1H-benzo[d]imidazol-6-yl)pyrimidin-2-yl)amino)pyridin-3-yl)methyl)-[1,4′-bipiperidin]-1′-yl)phenyl)amino) piperidine-2,6-dione] | 50 to 200 nM | > 80% | < 50 nM | 50 to 200 nM | > 80% |
| CC(=O)c1c(C)c2cnc(Nc3ccc(N4CCN(CCCNc5cc6c(cc5F)C(=O)N(C5CCC(=O)NC5=O)C6)CC4)cn3)nc2n(C2CCCC2)c1=O (centres unmarked) [Compound 52, 3-(5-((3-(4-(6-((6-acetyl-8-cyclopentyl-5-methyl-7-oxo-7,8-dihydropyrido[2,3-d]pyrimidin-2-yl)amino)pyridin-3-yl)piperazin-1-yl)propyl)amino)-6-fluoro-1-oxoisoindolin-2-yl) piperidine-2,6-dione] | 50 to 200 nM | > 80% | < 50 nM | 50 to 200 nM | > 80% |
| CC(=O)c1c(C)c2cnc(Nc3ccc(N4CCN(C(=O)N5CCN(CC6CCN(c7ccc8c(c7)CN(C7CCC(=O)NC7=O)C8=O)CC6)CC5)CC4)cn3)nc2n(C2CCCC2)c1=O (centres unmarked) [Compound 16, 3-(5-(4-((4-(4-(6-((6-acetyl-8-cyclopentyl-5-methyl-7-oxo-7,8-dihydropyrido[2,3-d]pyrimidin-2-yl)amino)pyridin-3-yl)piperazine-1-carbonyl)piperazin-1-yl)methyl)piperidin-1-yl)-1-oxoisoindolin-2-yl)piperidine-2,6-dione] | > 200 nM | > 50% | > 200 nM | > 200 nM | > 50% |
| CC(=O)c1c(C)c2cnc(Nc3ccc(N4CCN(C(=O)C5CCN(c6ccc7c(c6)CN(C6CCC(=O)NC6=O)C7=O)CC5)CC4)cn3)nc2n(C2CCCC2)c1=O (centres unmarked) [Compound 115, 3-(5-(4-(4-(6-((6-acetyl-8-cyclopentyl-5-methyl-7-oxo-7,8-dihydropyrido[2,3-d]pyrimidin-2-yl)amino)pyridin-3-yl)piperazine-1-carbonyl)piperidin-1-yl)-1-oxoisoindolin-2-yl)piperidine-2,6-dione] | 50 to 200 nM | > 60% | < 50 nM | 50 to 200 nM | > 60% |
| CC(=O)c1c(C)c2cnc(Nc3ccc(N4CCN(CCCNc5cc6c(cc5F)C(=O)N(C5CCC(=O)NC5=O)C6=O)CC4)cn3)nc2n(C2CCCC2)c1=O (centres unmarked) [Compound 51, 5-((3-(4-(6-((6-acetyl-8-cyclopentyl-5-methyl-7-oxo-7,8-dihydropyrido[2,3-d]pyrimidin-2-yl)amino)pyridin-3-yl)piperazin-1-yl)propyl)amino)-2-(2,6-dioxopiperidin-3-yl)-6-fluoroisoindoline-1,3-dione] | 50 to 200 nM | > 80% | < 50 nM | 50 to 200 nM | > 80% |
| CC(=O)c1c(C)c2cnc(Nc3ccc(N4CCN(C(=O)C5CN(c6ccc(NC7CCC(=O)NC7=O)cc6)C5)CC4)cn3)nc2n(C2CCCC2)c1=O (centres unmarked) [Compound 124, 3-((4-(3-(4-(6-((6-acetyl-8-cyclopentyl-5-methyl-7-oxo-7,8-dihydropyrido[2,3-d]pyrimidin-2-yl)amino)pyridin-3-yl)piperazine-1-carbonyl)azetidin-1-yl)phenyl)amino) piperidine-2,6-dione] | 50 to 200 nM | > 60% | < 50 nM | 50 to 200 nM | > 80% |
| CC(=O)c1c(C)c2cnc(Nc3ccc(N4CCN(CC5CCN(C(=O)N6CCC(c7ccc8c(c7)CN(C7CCC(=O)NC7=O)C8=O)CC6)CC5)CC4)cn3)nc2n(C2CCCC2)c1=O (centres unmarked) [Compound 34] | > 200 nM | > 50% | > 200 nM | > 200 nM | > 50% |
| CC(=O)c1c(C)c2cnc(Nc3ccc(N4CCN(C5CN(c6ccc(C(=O)NC7CCC(=O)NC7=O)cc6)C5)CC4)cn3)nc2n(C2CCCC2)c1=O (centres unmarked) [Compound 102, 4-(3-(4-(6-((6-acetyl-8-cyclopentyl-5-methyl-7-oxo-7,8-dihydropyrido[2,3-d]pyrimidin-2-yl)amino)pyridin-3-yl)piperazin-1-yl)azetidin-1-yl)-N-(2,6-dioxopiperidin-3-yl)benzamide] | 50 to 200 nM | > 60% | 50 to 200 nM | 50 to 200 nM | > 80% |
| CC(=O)c1c(C)c2cnc(Nc3ccc(N4CCN(C(=O)N5CCN(CCC6CCN(c7ccc8c(c7)CN(C7CCC(=O)NC7=O)C8=O)CC6)CC5)CC4)cn3)nc2n(C2CCCC2)c1=O (centres unmarked) [Compound 24, 3-(5-(4-(2-(4-(4-(6-((6-acetyl-8-cyclopentyl-5-methyl-7-oxo-7,8-dihydropyrido[2,3-d]pyrimidin-2-yl)amino)pyridin-3-yl)piperazine-1-carbonyl)piperazin-1-yl)ethyl)piperidin-1-yl)-1-oxoisoindolin-2-yl)piperidine-2,6-dione] | > 200 nM | > 50% | > 200 nM | > 200 nM | > 50% |
| Cc1nc2c(F)cc(-c3nc(Nc4ccc(CN5CCN(CC6CCN(c7ccc(NC8CCC(=O)NC8=O)cc7)CC6)CC5)cn4)ncc3F)cc2n1C(C)C (centres unmarked) [Compound 152, 3-((4-(4-((4-((6-((5-fluoro-4-(4-fluoro-1-isopropyl-2-methyl-1H-benzo[d]imidazol-6-yl)pyrimidin-2-yl)amino)pyridin-3-yl)methyl)piperazin-1-yl)methyl)piperidin-1-yl)phenyl)amino) piperidine-2,6-dione] | 50 to 200 nM | > 80% | < 50 nM | < 50 nM | > 80% |

Now from value to molecule:

| DC50 (CDK6) | Dmax (CDK6) | IC50 [1] | DC50 (CDK4) | Dmax (CDK4) | SMILES |
| --- | --- | --- | --- | --- | --- |
| 50 to 200 nM | > 80% | < 50 nM | 50 to 200 nM | > 80% | CC(=O)c1c(C)c2cnc(Nc3ccc(N4CCN(C5CCN(c6ccc7c(c6)CN(C6CCC(=O)NC6=O)C7=O)CC5)CC4)cn3)nc2n(C2CCCC2)c1=O (centres unmarked) [Compound 64, 3-(5-(4-(4-(6-((6-acetyl-8-cyclopentyl-5-methyl-7-oxo-7,8-dihydropyrido[2,3-d]pyrimidin-2-yl)amino)pyridin-3-yl)piperazin-1-yl)piperidin-1-yl)-1-oxoisoindolin-2-yl)piperidine-2,6-dione] |
| 50 to 200 nM | > 60% | 50 to 200 nM | 50 to 200 nM | > 60% | CC(=O)c1c(C)c2cnc(Nc3ccc(N4CCN(C(=O)N5CCC(CC6CCN(c7ccc8c(c7)C(=O)N(C7CCC(=O)NC7=O)C8=O)CC6)CC5)CC4)cn3)nc2n(C2CCCC2)c1=O (centres unmarked) [Compound 13, 5-(4-((1-(4-(6-((6-acetyl-8-cyclopentyl-5-methyl-7-oxo-7,8-dihydropyrido[2,3-d]pyrimidin-2-yl)amino)pyridin-3-yl)piperazine-1-carbonyl)piperidin-4-yl)methyl)piperidin-1-yl)-2-(2,6-dioxopiperidin-3-yl)isoindoline-1,3-dione] |
| < 50 nM | > 60% | < 50 nM | 50 to 200 nM | > 80% | CC(=O)c1c(C)c2cnc(Nc3ccc(C4CCN(C(=O)C5CN(c6ccc7c(c6)CN(C6CCC(=O)NC6=O)C7=O)C5)CC4)cn3)nc2n(C2CCCC2)c1=O (centres unmarked) [Compound 130, 3-(5-(3-(4-(6-((6-acetyl-8-cyclopentyl-5-methyl-7-oxo-7,8-dihydropyrido[2,3-d]pyrimidin-2-yl)amino)pyridin-3-yl)piperidine-1-carbonyl)azetidin-1-yl)-1-oxoisoindolin-2-yl)piperidine-2,6-dione] |
| < 50 nM | > 80% | < 50 nM | < 50 nM | > 80% | Cc1nc2c(F)cc(-c3nc(Nc4ccc(CC5CCN(CC6CN(c7ccc8c(c7)C(=O)N(C7CCC(=O)NC7=O)C8=O)C6)CC5)cn4)ncc3F)cc2n1C(C)C (centres unmarked) [Compound 139, 2-(2,6-dioxopiperidin-3-yl)-5-(3-((4-((6-((5-fluoro-4-(4-fluoro-1-isopropyl-2-methyl-1H-benzo[d]imidazol-6-yl)pyrimidin-2-yl)amino)pyridin-3-yl)methyl)piperidin-1-yl)methyl)azetidin-1-yl)isoindoline-1,3-dione] |
| < 50 nM | > 80% | < 50 nM | < 50 nM | > 80% | CC(=O)c1c(C)c2cnc(Nc3ccc(N4CCN(CC5CN(c6ccc7c(c6)C(=O)N(C6CCC(=O)NC6=O)C7=O)C5)CC4)cn3)nc2n(C2CCCC2)c1=O (centres unmarked) [Compound 80, 5-(3-((4-(6-((6-acetyl-8-cyclopentyl-5-methyl-7-oxo-7,8-dihydropyrido[2,3-d]pyrimidin-2-yl)amino)pyridin-3-yl)piperazin-1-yl)methyl)azetidin-1-yl)-2-(2,6-dioxopiperidin-3-yl) isoindoline-1,3-dione] |
